Values of other authors in US20090233891A1, “Pharmaceutical lotion comprising fluticasone propionate” (GLENMARK GENERICS LTD., priority 2008, published 2009).

CCC(=O)O[C@]1(C(=O)SCF)[C@H](C)C[C@H]2[C@@H]3C[C@H](F)C4=CC(=O)C=C[C@]4(C)[C@@]3(F)[C@@H](O)C[C@@]21C [Fluticasone propionate, S-(fluoromethyl) 6a, 9-difluoro-11β, 17-dihydroxy-16a-methyl-3-oxoandrosta-1,4-diene-17β-carbothioate, 17-propionate]
solubility in 95% ethanol (95% ethanol): slightly soluble | solubility in dimethyl sulfoxide (dimethyl sulfoxide): freely soluble | solubility in dimethylformamide (dimethylformamide): freely soluble | solubility in methanol (methanol): slightly soluble | solubility in water (water): practically insoluble
